pIC50: −log10 of the molar value.
Key:
ERK1 = target: T1, ERK1 (Homo sapiens, UniProt P27361); assay: ERK1 enzyme activity test (ADP-Glo Kinase Assay); type: biochemical; conditions: ADP-Glo chemiluminescence
T1 construct: purchased R&D 1879-KS-010
Protocol: (§1) The purpose of this experiment is to detect the inhibitory ability of the compounds of the present disclosure on the ERK1 enzyme activity and to evaluate the in vitro activity of the compounds based on the IC50. The ADP-Glo™ Kinase Assay Kit was used in this experiment. The substrate was phosphorylated under the action of the enzyme and ADP was produced at the same time. The ADP-Glo reagent was added to remove the unreacted ATP in the reaction system, and the ADP produced by the reaction was detected with kinase detection reagent. In the presence of the compound, the inhibition rate of the compound was calculated by measuring the signal value.
Preparation of Enzyme and substrate: ERK1 (1879-KS-010, R&D) and substrate (AS-61777, anaspec) were prepared to 0.75 ng/p1 and 100 μM respectively in a buffer, and then the enzyme solution and the substrate solution were prepared into a mixed solution at a volume ratio of 2:1 for later use. ATP was diluted to 300 μM with buffer. The compound was dissolved in DMSO (dimethyl sulfoxide, Shanghai Titan Scientific Co., Ltd.) to prepare a stock solution with an initial concentration of 20 mM, and then Bravo was used to prepare the compound. Finally, 3 μL of a mixed solution of enzyme and substrate, and 1 μL of different concentrations of the compound (the initial concentration was 50 μM, 4-fold dilution) were added to each well of the 384-well plate, and the plate was incubated at 30° C. for 10 minutes, and finally 1 μL of 300 μM ATP solution was added to each well, and the plate was incubated at 30° C. for 2 hours. Then 5 μL of ADP-Glo was added, and the plate was incubated at 30° C. for 40 minutes. Then 10 μL of kinase detection buffer was added, and the plate was incubated at 30° C. for 40 minutes. The 384-well plate was taken out and placed in a microplate reader (BMG labtech, PHERAstar FS), and the chemiluminescence was measured by a microplate reader.
(§2) Microsoft Excel, Graphpad Prism 5 was used to process and analyze the data.

ERK2 = target: T2, ERK2 (Homo sapiens, UniProt P28482); assay: ERK2 enzyme activity test (ADP-Glo Kinase Assay); type: biochemical; conditions: ADP-Glo chemiluminescence
T2 construct: purchased R&D 1879-KS-010
T2 sequence (P28482 2-360 limits assumed): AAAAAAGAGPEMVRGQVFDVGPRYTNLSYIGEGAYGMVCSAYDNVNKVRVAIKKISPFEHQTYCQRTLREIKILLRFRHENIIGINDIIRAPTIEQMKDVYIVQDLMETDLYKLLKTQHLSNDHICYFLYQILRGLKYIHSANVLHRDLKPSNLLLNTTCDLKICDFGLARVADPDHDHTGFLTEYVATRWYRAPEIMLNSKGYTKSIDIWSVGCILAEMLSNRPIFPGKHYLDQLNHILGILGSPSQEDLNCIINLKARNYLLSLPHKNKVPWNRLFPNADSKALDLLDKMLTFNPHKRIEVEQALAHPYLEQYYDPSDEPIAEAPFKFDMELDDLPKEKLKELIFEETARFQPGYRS
Protocol: as §1, with “the ERK2” for “the ERK1”, “enzyme activity,” for “enzyme activity”
Preparation of enzyme and substrate: ERK2 (1879-KS-010, R&D) and substrate (custom peptide, Gill Biochemical) were prepared to 0.75 ng/ml and 1500 μM in a buffer (40 mM Tris, 20 mM MgCl2, 0.1 mg/ml BSA, 50 μM DTT), and then the enzyme solution and the substrate solution were prepared into a mixed solution at a volume ratio of 2:1 for later use. ATP was diluted to 500 μM with buffer. The compound was dissolved in DMSO (dimethyl sulfoxide, Shanghai Titan Scientific Co., Ltd.) to prepare a stock solution with an initial concentration of 20 mM, and then Bravo was used to prepare the compound. Finally, 3 μL of a mixed solution of enzyme and substrate, and 1 μL substrate of different concentrations of the compound (the initial concentration is 50 μM, 4-fold dilution) were added to each well of the 384-well plate, and the plate was incubated at 30° C. for 10 minutes, and finally 1 μL 500 μM ATP solution was added to each well, and the plate was incubated at 30° C. for 2 hours. Then 5 μL of ADP-Glo was added, and the plate was incubated at 30° C. for 40 minutes. Then 10 μL of kinase detection buffer was added, and the plate was incubated at 30° C. for 40 minutes. The 384-well plate was taken out and placed in a microplate reader (BMG labtech, PHERAstar FS), and the chemiluminescence was measured by a microplate reader.
as §2

Colo205 cells = assay: In vitro proliferation inhibition test on Colo205 tumor cells (CellTiter-Glo); type: cell-based; conditions: Homo sapiens, COLO 205, 72 h; Colo205 cell proliferation, 3 days of culture, CTG
Protocol: The purpose of this experiment is to test the inhibitory activity of the compounds of the present disclosure on the proliferation of Colo205 cells (CCL-222, ATCC) in vitro. The cells were treated in vitro with different concentrations of the compounds. After 3 days of culture, the cell proliferation was tested with CTG (CellTiter-Glo® Luminescent Cell Viability Assay, Promega, Catalog No. G7573) reagent, and the in vitro activity of the compounds was evaluated according to the ICso value.
In the following, the in vitro proliferation inhibition test method of Colo205 cells is taken as an example to illustrate the method for testing the in vitro proliferation inhibitory activity of the compounds of the present disclosure on tumor cells. This method is also applicable to, but not limited to, the in vitro proliferation inhibitory activity test on other tumor cells.
Colo205 cells were digested, centrifuged and then resuspended. The single cell suspension was mixed well, and the density of viable cells was adjusted to 5.0×10^4 cells/ml with cell culture medium (RPMI1640+2% FBS), and 95 μL/well was added to a 96-well cell culture plate. Only 100 μL medium was added to the peripheral wells of the 96-well plate. The culture plate was incubated in an incubator for 24 hours (37° C., 5% CO2).
The compound was dissolved in DMSO (dimethyl sulfoxide, Shanghai Titan Scientific Co., Ltd.) and prepared as a stock solution with an initial concentration of 20 mM. The initial concentration of the small molecule compound was 2 mM, and then 4-fold diluted into 9 points, and the 10th point was DMSO. Another 96-well plate was taken, and 90 μL of cell culture medium (RPMI1640+2% FBS) was added to each well. Then 10 μL of different concentrations of the test sample was added to each well. The mixture was mixed well, and then 5μL of different concentrations of the test sample was added to the cell culture plate. Each sample has two duplicate holes. The culture plate was incubated in the incubator for 3 days (37° C., 5% CO2). The 96-well cell culture plate was taken out. 50 μL solution of CTG was added to each well, and the plate was incubated for 10 minutes at room temperature. In a microplate reader (BMG labtech, PHERAstar FS), chemiluminescence was measured with the microplate reader.
as §2

[1] = Pharmacokinetics assay in mice; type: in vivo; conditions: female, mouse, po, C57 mice, intragastric, 2 mg/kg, plasma; for Vd/F: read-out: Apparent distribution volume Vz/F; for AUC: read-out: Area under curve AUC; for CL/F: read-out: Clearance CLz/F; for half-life: read-out: Half-life T1/2 (converted); for Cmax: read-out: Plasma concentration Cmax; for MRT: read-out: Residence time MRT
Protocol: Mice were used as test animals. The drug concentration in plasma at different time points was determined by LC/MS/MS method after administration of the compounds 1-P2, 2-P2, 4-P2, 6-P2, 9-P2, 10-P2 and 11-P2. The pharmacokinetic behavior of the compounds of the present disclosure was studied and evaluated in mice.
Sixty-three C57 mice (female, equally divided into seven groups) were purchased from Shanghai Jiesijie Laboratory Animal Co., LTD. (Certificate No.: SCXK(Shanghai)2013-0006).
A certain amount of the test compound was weighed, dissolved in 5% of DMSO by volume and 5% of tween 80, followed by the additon of 90% of normal saline to prepare a 0.1 mg/mL colorless, clear and transparent solution.
After an overnight fast, C57 mice were intragastrically administered the test compound at an administration dose of 2 mg/kg and an administration volume of 0.2 ml/10 g.
The mice were intragastrically administered the test compounds. 0.1 ml of blood was taken before the administration and at 0.25, 0.5, 1.0, 2.0, 4.0, 6.0, 8.0, 11.0 and 24.0 hours after the administration. The samples were stored in heparinized tubes, and centrifuged for 10 minutes at 3500 rpm to separate the blood plasma. The plasma samples were stored at −20° C.
The content of the test compound in the plasma of mice after intragastrical administration of the test compound at different concentrations was determined: 25 μL of […] plasma at each time point after the administration was taken, followed by the addition of 50 μL of the internal standard camptothecin solution (100ng/mL) and 200 μL of acetonitrile. The resulting solution was vortex-mixed for 5 minutes, and centrifuged for 10 minutes (4000 rpm). 4 μL of the supernatant was taken from the plasma samples for LC/MS/MS analysis.

T1 sequence (P27361 whole entry): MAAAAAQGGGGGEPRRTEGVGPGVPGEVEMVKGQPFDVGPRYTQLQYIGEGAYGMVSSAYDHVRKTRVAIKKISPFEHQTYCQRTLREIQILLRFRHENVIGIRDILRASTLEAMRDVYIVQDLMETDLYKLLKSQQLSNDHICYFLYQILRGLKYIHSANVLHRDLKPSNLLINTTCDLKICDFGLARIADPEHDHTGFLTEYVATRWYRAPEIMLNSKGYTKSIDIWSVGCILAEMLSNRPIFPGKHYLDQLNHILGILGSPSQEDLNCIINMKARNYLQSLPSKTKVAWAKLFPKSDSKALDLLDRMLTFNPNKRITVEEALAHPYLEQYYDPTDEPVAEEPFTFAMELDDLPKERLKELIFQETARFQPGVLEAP

Question: With `COc1cc(F)cc([C@@H](CO)NC(=O)[C@@H](C)N2CCc3cc(-c4nc(Nc5ccnn5C)ncc4C)cn3C2=O)c1` [Example 1-P2, (R)-N-((S)-1-(3-Fluoro-5-methoxyphenyl)-2-hydroxyethyl)-2-(6-(5-methyl-2-((1-methyl-1H-pyrazol-5-yl)amino)pyrimidin-4-yl)-1-oxo-3,4-dihydropyrrolo[1,2-c]pyrimidin-2(1H)-yl)propanamide] as the compound, how does the pIC50 (ERK1) read?
Answer: 8.15

Question: What about the pIC50 (ERK2) of the same compound?
Answer: 8.82

Question: And the pIC50 (Colo205 cells)?
Answer: 7.76

Question: What about the Vd/F [1] of the same compound?
Answer: 3.75 L/kg

Question: What about the AUC [1] of the same compound?
Answer: 1110 ng·h/mL

Question: And the CL/F [1]?
Answer: 29.7 mL/min/kg

Question: What about the half-life [1] of the same compound?
Answer: 1.46 h

Question: And the Cmax [1]?
Answer: 501 ng/mL

Question: And the MRT [1]?
Answer: 1.84 h

Question: What does the source list for `COc1cc(F)cc([C@@H](CO)NC(=O)[C@@H](C)N2CCc3cc(-c4nc(NC5CCOCC5)ncc4Cl)cn3C2=O)c1` [Example 2-P2, (R)-2-(6-(5-Chloro-2-((tetrahydro-2H-pyran-4-yl)amino)pyrimidin-4-yl)-1-oxo-3,4-dihydropyrrolo[1,2-c]pyrimidin-2(1H)-yl)-N-((S)-1-(3-fluoro-5-methoxyphenyl)-2-hydroxyethyl)propanamide]?
Answer: pIC50 (ERK1): 8.34; pIC50 (ERK2): 8.77; pIC50 (Colo205 cells): 7.82; Vd/F [1]: 5.94 L/kg; AUC [1]: 994 ng·h/mL; CL/F [1]: 33.5 mL/min/kg; half-life [1]: 2.05 h; Cmax [1]: 867 ng/mL; MRT [1]: 1.08 h

Question: Which results are given for `COc1cc(F)cc([C@@H](CO)NC(=O)[C@@H](C)N2CCn3cc(-c4nc(NC5CCOCC5)ncc4Cl)cc3C2=O)c1` [Example 4-P2, (R)-2-(7-(5-Chloro-2-((tetrahydro-2H-pyran-4-yl)amino)pyrimidin-4-yl)-1-oxo-3,4-dihydropyrrolo[1,2-a]pyrazin-2(1H)-yl)-N-((S)-1-(3-fluoro-5-methoxyphenyl)-2-hydroxyethyl)propanamide]?
Answer: pIC50 (ERK1): 8.42; pIC50 (ERK2): 9.00; pIC50 (Colo205 cells): 8.00; Vd/F [1]: 3.29 L/kg; AUC [1]: 936 ng·h/mL; CL/F [1]: 35.5 mL/min/kg; half-life [1]: 1.07 h; Cmax [1]: 905 ng/mL; MRT [1]: 1.07 h

Question: Which results are given for `Cc1cccc([C@@H](CO)NC(=O)[C@@H](C)N2CCn3cc(-c4nc(NC5CCOCC5)ncc4Cl)cc3C2=O)c1` [Example 9-P2, (R)-2-(7-(5-Chloro-2-((tetrahydro-2H-pyran-4-yl)amino)pyrimidin-4-yl)-1-oxo-3,4-dihydropyrrolo[1,2-a]pyrazin-2(1H)-yl)-N-((S)-2-hydroxy-1-(m-tolyl)ethyl)propanamide]?
Answer: pIC50 (ERK1): 8.05; pIC50 (ERK2): 8.72; pIC50 (Colo205 cells): 7.75; Vd/F [1]: 3.14 L/kg; AUC [1]: 1330 ng·h/mL; CL/F [1]: 25.1 mL/min/kg; half-life [1]: 1.44 h; Cmax [1]: 1410 ng/mL; MRT [1]: 0.838 h

Question: What does the source list for `Cc1cccc([C@@H](CO)NC(=O)[C@@H](C)N2CCn3cc(-c4nc(Nc5ccnn5C)ncc4C)cc3C2=O)c1` [Example 10-P2, (R)-N-((S)-2-Hydroxy-1-(m-tolyl)ethyl)-2-(7-(5-methyl-2-((1-methyl-1H-pyrazol-5-yl)amino)pyrimidin-4-yl)-1-oxo-3,4-dihydropyrrolo[1,2-a]pyrazin-2(1H)-yl)propanamide]?
Answer: pIC50 (ERK1): 8.07; pIC50 (ERK2): 8.96; pIC50 (Colo205 cells): 7.00

Question: With `COc1cc(F)cc([C@@H](CO)NC(=O)[C@@H](C)N2CCn3cc(-c4nc(Nc5ccnn5C)ncc4C)cc3C2=O)c1` [Example 12-P2, (R)-N-((S)-1-(3-Fluoro-5-methoxyphenyl)-2-hydroxyethyl)-2-(7-(5-methyl-2-((1-methyl-1H-pyrazol-5-yl)amino)pyrimidin-4-yl)-1-oxo-3,4-dihydropyrrolo[1,2-a]pyrazin-2(1H)-yl)propanamide] as the compound, how does the pIC50 (ERK1) read?
Answer: 8.03

Question: What about the pIC50 (ERK2) of the same compound?
Answer: 9.05

Question: What about the pIC50 (Colo205 cells) of the same compound?
Answer: 7.09

Question: What does the source list for `COc1cc(F)cc([C@@H](CO)NC(=O)[C@@H](C)N2CCn3cc(-c4nc(NC5CCOCC5)ncc4C)cc3C2=O)c1` [Example 17-P2, (R)-N-((S)-1-(3-Fluoro-5-methoxyphenyl)-2-hydroxyethyl)-2-(7-(5-methyl-2-((tetrahydro-2H-pyran-4-yl)amino)pyrimidin-4-yl)-1-oxo-3,4-dihydropyrrolo[1,2-a]pyrazin-2(1H)-yl)propanamide]?
Answer: pIC50 (ERK1): 7.66; pIC50 (ERK2): 8.51; pIC50 (Colo205 cells): 7.42
